Data on 12 molecules can be found in PubChem BioAssay (NCI).

Among the test systems are HCT-15 colon; SK-MEL-2 melanoma; HCC-2998 colon; SF-268 CNS; ACHN renal; NCI-H23 lung; SF-539 CNS; SW-620 colon; OVCAR-8 ovarian; HL-60(TB) leukemia.
Holding throughout (assay): NCI-60 cell line screen, 48 h

Several values for one entry are separate records, joined by “and”; a condition that tells them apart may be missing. Equal values may be shown once.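 Results reflect a 48-hour exposure of cells in 96-well plates to compound at five concentrations. GI50 = concentration required for 50% inhibition of growth. TGI: total growth inhibition.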 Where a SMILES comes first, the peptide text is derived from it. [ ]: non-standard residue; d: D form. The star is where a group is joined. NMeF = CN[CH](Cc1ccccc1)C(=O)O; NMeV = CN[CH](C(=O)O)C(C)C; Boc = CC(C)(C)OC(=O)*

Turning to `COC(=O)/C(=N\Nc1nnc(C)n1N)C(C#N)c1ccc(Cl)cc1` (centres undefined), the TGI in the test on HCT-15 colon, in the test on SK-MEL-2 melanoma, in the test with HCC-2998 colon, in the test on SF-268 CNS, in the test on ACHN renal and in the test on NCI-H23 lung was over 100 µM in each case. In addition, the TGI with SF-539 CNS, in the test with SW-620 colon and in the test on OVCAR-8 ovarian was over 100 µM each time.
In the case of `COc1ccccc1CCc1cc(OC)c(OC)c(OC)c1`, the TGI with HCT-15 colon was over 100 µM; in the test on HL-60(TB) leukemia it was 39.3 µM; in the test on SF-268 CNS it was over 100 µM; in the test with ACHN renal it was over 100 µM; in the test with SF-539 CNS, over 100 µM; with SW-620 colon it was over 100 µM. The TGI in the test on OVCAR-8 ovarian was over 100 µM.
As to `CCOC(=O)c1c(C)n(Cc2ccc(Cl)cc2Cl)c2c1c(CN(C)C)c(O)c1[nH]cnc12`, the GI50 was 15.5 µM with HCT-15 colon; 19.9 µM in the test with SK-MEL-2 melanoma; 2.01 µM in the test on HL-60(TB) leukemia; 15.1 µM in the test on SF-268 CNS; 15.4 µM in the test on ACHN renal; 0.271 µM in the test with NCI-H23 lung. Also, the GI50 with SF-539 CNS was 20.2 µM; in the test with SW-620 colon it was 20.1 µM; with OVCAR-8 ovarian it was 15.1 µM. The TGI with HCT-15 colon is 28.9 µM; with SK-MEL-2 melanoma, 39.8 µM; in the test with HL-60(TB) leukemia, 8.33 µM; with SF-268 CNS, 28.3 µM; with ACHN renal it was 28.7 µM; with NCI-H23 lung it was 5.95 µM. For the same molecule, the TGI with SF-539 CNS came to 36.9 µM; in the test on SW-620 colon it was 34.3 µM; in the test with OVCAR-8 ovarian, 28.3 µM.
As to `CC(C)C(NC(=O)OC(C)(C)C)C(=O)N(C)C(Cc1ccccc1)C(=O)N(C)C(C(=O)O)C(C)C` (stereo not drawn) (Boc-Val-[NMeF]-[NMeV]-OH; configuration not given here), the TGI in the test on HCT-15 colon is over 100 µM; with HCC-2998 colon, over 100 µM; with HL-60(TB) leukemia, over 100 µM; in the test on SF-268 CNS it was over 100 µM; in the test on ACHN renal it was 71 µM and > 100 µM; with NCI-H23 lung it was over 100 µM. Further, the TGI with SF-539 CNS, in the test on SW-620 colon and in the test on OVCAR-8 ovarian was over 100 µM each time. Further, the GI50 in the test with ACHN renal was 23.1 µM and > 100 µM.
As for `COc1ccc(Nc2c3ccccc3nc3occc23)cc1`, the GI50 is 0.336 µM in the test with HCT-15 colon; 0.541 µM in the test with HCC-2998 colon; 1.47 µM with HL-60(TB) leukemia; 3.68 µM in the test with SF-268 CNS; 9.95 µM in the test on ACHN renal; 3.72 µM in the test with NCI-H23 lung. Besides, the GI50 in the test on SF-539 CNS was 2.84 µM; in the test with SW-620 colon, 2.9 µM; in the test with OVCAR-8 ovarian, 5.71 µM. Moreover, the TGI in the test with HCT-15 colon was 14.1 µM; in the test on HCC-2998 colon, 12.2 µM; with SF-268 CNS, 34 µM; in the test on ACHN renal, over 80.6 µM; with NCI-H23 lung it was over 27.6 µM; in the test with SF-539 CNS it was 20.8 µM. Moreover, the TGI with SW-620 colon is 39.5 µM; with OVCAR-8 ovarian, over 100 µM.
On to `CS/C(N)=N\NC(=O)CCC(=O)Nc1ccccc1C(F)(F)F`, for which the TGI in the test with HCT-15 colon, with SK-MEL-2 melanoma, in the test with HCC-2998 colon, in the test with SF-268 CNS, in the test on ACHN renal and with NCI-H23 lung was over 100 µM in each case. Besides, the TGI in the test on SF-539 CNS, with SW-620 colon and in the test with OVCAR-8 ovarian was over 100 µM throughout.
Take `COc1ccc(-c2n[nH]nc2-c2cc(OC)c(OC)c(OC)c2)cc1`: the GI50 in the test on HCT-15 colon is under 0.01 µM; in the test on SK-MEL-2 melanoma, under 0.01 µM; in the test with HCC-2998 colon it was 0.0189 µM; in the test on HL-60(TB) leukemia, under 0.01 µM; with SF-268 CNS, 0.0156 µM; with ACHN renal, 0.0169 µM. The GI50 in the test on NCI-H23 lung, in the test with SW-620 colon and in the test with OVCAR-8 ovarian was under 0.01 µM each time. The TGI with HCT-15 colon was over 100 µM; in the test with SK-MEL-2 melanoma, 43.4 µM; in the test on HCC-2998 colon, 19.5 µM; in the test with HL-60(TB) leukemia, under 0.01 µM; in the test on SF-268 CNS, over 100 µM; with ACHN renal it was over 100 µM. Moreover, the TGI in the test with NCI-H23 lung was 36.4 µM; in the test on SW-620 colon it was over 100 µM; in the test with OVCAR-8 ovarian it was 22 µM.
Take `CC(C)(C)c1cc(Br)c(O)c(CN(Cc2cc(C(C)(C)C)cc(Br)c2O)C2CCCCC2)c1`: the TGI in the test on HCT-15 colon amounted to 25.4 µM; in the test with SK-MEL-2 melanoma, 25.8 µM; in the test on HL-60(TB) leukemia it was 35.8 µM; with SF-268 CNS, 26.4 µM; in the test on ACHN renal, 28.1 µM; in the test on NCI-H23 lung, 26.3 µM. Further, the values for the TGI with SW-620 colon and in the test on OVCAR-8 ovarian were 25.8 µM and 28.3 µM, respectively.
Take `CC1CC[C@]2(C(=O)O)CCC3(C)C(=CC(=O)C4[C@@]5(C)CCC(=O)C(C)(C)C5CC[C@]43C)[C@@H]2[C@H]1C` (some centres undefined): the TGI in the test on HL-60(TB) leukemia was 24.7 µM; with SF-268 CNS, over 100 µM; with ACHN renal, over 100 µM; with NCI-H23 lung, 79.3 µM; with SF-539 CNS it was 44.1 µM; in the test on SW-620 colon, over 100 µM. In the test on OVCAR-8 ovarian, this molecule returned a TGI of over 100 µM.
In the case of `COC1=C(C)C(=O)c2c(c(COC(N)=O)c3n2CC2C3N2C)C1=O` (centres undefined), the TGI with HCT-15 colon is 0.0719 µM; with SK-MEL-2 melanoma, 0.109 µM; with HL-60(TB) leukemia, 0.17 µM; in the test on SF-268 CNS it was 0.6 µM; with ACHN renal it was under 0.0139 µM; in the test with NCI-H23 lung it was under 0.0363 µM. Further, the TGI in the test on SF-539 CNS amounted to 0.12 µM; in the test with SW-620 colon, 0.145 µM; in the test on OVCAR-8 ovarian, 0.216 µM.
In the case of `Cc1cccc(N2CCN(C(=S)c3ccc4c(c3)OCO4)CC2)c1`, the GI50 in the test with HCT-15 colon is 0.625 µM; in the test on HCC-2998 colon, 3.76 µM; with HL-60(TB) leukemia it was 0.659 µM; with SF-268 CNS it was 3.85 µM; with ACHN renal, 3.88 µM; with NCI-H23 lung, 7.07 µM. Besides, the GI50 in the test with SF-539 CNS is 1.5 µM; with SW-620 colon it was 0.467 µM; in the test on OVCAR-8 ovarian, 1.81 µM. Further, the TGI in the test on HCT-15 colon is over 100 µM; with HCC-2998 colon it was over 100 µM; with HL-60(TB) leukemia, 19 µM; in the test with SF-268 CNS, over 100 µM; with ACHN renal, over 100 µM; with NCI-H23 lung, over 100 µM. Besides, the TGI in the test on SF-539 CNS, in the test on SW-620 colon and with OVCAR-8 ovarian was over 100 µM throughout.
For `Cc1ccn2c(c1)nc1nc3ccccc3nc12`, the TGI in the test on HCT-15 colon, in the test with SK-MEL-2 melanoma, in the test with HL-60(TB) leukemia, in the test with SF-268 CNS, in the test with ACHN renal and in the test with NCI-H23 lung was over 100 µM in each case. Also, the TGI in the test on SF-539 CNS, in the test on SW-620 colon and in the test on OVCAR-8 ovarian was over 100 µM throughout.
